Data published in the SangsterLogP compilation.

Test: method code SF-AS, from PMID: 4730594
Conditions: pH 7.0
With `O=[N+]([O-])c1cc[n+]([O-])c2c(F)cccc12` the logD was 1.
Work on `CC(=O)ON=c1ccn(OC(C)=O)c2ccccc12` yielded a logD of 1.04.
Work on `[O-][n+]1ccc(Cl)c2ccccc21` yielded a logD of 1.08.
With `CC(C)(C)c1ccc2c(c1)c([N+](=O)[O-])cc[n+]2[O-]` the logD was 1.51.
`Cc1ccc2c(c1)c([N+](=O)[O-])cc[n+]2[O-]` showed a logD of 1.43.
`O/N=c1/ccn(O)c2ccccc12` showed a logD of 0.
`Cc1c[n+]([O-])c2ccccc2c1[N+](=O)[O-]` gave a logD of 1.06.
For `Cc1ccc2c([N+](=O)[O-])cc[n+]([O-])c2c1`, the logD was 1.42.
With `O=[N+]([O-])c1cccc2c1c([N+](=O)[O-])cc[n+]2[O-]` the logD was 0.95.
Molecule `O=[N+]([O-])c1cc[n+]([O-])c2c([N+](=O)[O-])cccc12` has a logD of 0.76.
`O=[N+]([O-])c1cccc2ccc[n+]([O-])c12` gave a logD of 0.04.
For `O=[N+]([O-])c1cccc2c1ccc[n+]2[O-]`, the logD was 0.49.
`Cc1cccc2c1c([N+](=O)[O-])cc[n+]2[O-]` gave a logD of 1.36.
In the case of `CC(=O)ONc1ccnc2ccccc12`, the logD was 0.97.
For `O=[N+]([O-])c1cc[n+]([O-])c2ccc(Cl)cc12`, the logD was 1.41.
`CCCCc1ccc2c(c1)c([N+](=O)[O-])cc[n+]2[O-]` gave a logD of 2.08.
Work on `O=c1ccn(O)c2ccccc12` yielded a logD of -0.47.
`CS(=O)(=O)c1cc[n+]([O-])c2ccccc12` showed a logD of 0.12.
Molecule `O=[N+]([O-])c1ccc2c(ccc[n+]2[O-])c1` has a logD of 0.39.
Molecule `O=[N+]([O-])c1c(Cl)c[n+]([O-])c2ccccc12` has a logD of 1.33.
`NC(=O)Cc1cc[n+]([O-])c2ccccc12` showed a logD of -0.11.
For `O=[N+]([O-])c1ccc2c(c1)c([N+](=O)[O-])cc[n+]2[O-]`, the logD was 0.9.
With `Cc1cc([N+](=O)[O-])c2ccccc2[n+]1[O-]` the logD was 1.25.
In the case of `O=[N+]([O-])c1ccc2ccc[n+]([O-])c2c1`, the logD was 0.36.
With `O=[N+]([O-])c1cc[n+]([O-])c2ccccc12` the logD was 1.02.
Work on `Cc1cccc2c([N+](=O)[O-])cc[n+]([O-])c12` yielded a logD of 1.59.
For `O=[N+]([O-])c1cc2ccccc2[n+]([O-])c1`, the logD was 0.56.
